Experimental findings from patent US10975123B2, “Mutant Akt-specific capture agents, compositions, and methods of using and making” (California Institute of Technology, priority 2014, dated 2021) are described below.

In experiment [1] the target is T1, E17K GST-PH Domain (E17K Akt1) (Homo sapiens, UniProt P31749, E17K).
T1 construct: The first 124 N-terminal amino acids from full length Akt1 were used as the PH Domain DNA; GST (N); thrombin cleavage site (C); 6His (C); made in house; host or cells: E. coli BL21-DE3-pLys
Kind of experiment: Full curve ELISA, immobilized ligand, E17K protein. The format is binding. As for the experimental part:
The full curve ELISAs were obtained using streptavidin coated ELISA plates (Pierce). The ligands—anchor, biligand, triligand and “eflya” scrambled anchor peptide blank—were laid down at a concentration of 1 μM for one hour. Two lanes of each ligand were used on the plate for both proteins—WT and E17K GST-PH Domain. The plates were blocked with 5% BSA for two hours. Dilutions of both WT and E17K GST-PH Domain proteins were made in 0.5% BSA in 1×TBS starting from 1 μM-0.5 nM by serially diluting 1:2 down a series of 8 samples. For each ligand, a no protein blank was also used. The proteins were incubated with the blocked plate for one hour, washed 3× with 1×TBST+0.5% BSA and tapped dry, then detected with a 1:10,000 dilution of an HRP conjugated anti-GST pAb. The plate was again washed 3× with 1×TBST and tapped dry. It was developed with a 1:1 solution of TMB substrate and development was stopped with 1M H2SO4 and read on a plate reader.

Experiment [2] concerns E17K Akt1 relative to E17K Akt2. Kind of experiment: Point ELISA for triligand binding to Akt1 and Akt2 wildtype and E17K mutant. As to conditions: protein 100 nM, immobilized triligand, in words. As for the experimental part: These assays were conducted to test the binding of the triligand to the off-target Akt2 wildtype and mutant proteins. For this assay, all samples were taken in triplicate for statistical purposes. Triligand peptide was first immobilized onto neutravdin ELISA plates (Pierce) for one hour. A scrambled anchor peptide, eflya, was used as the no-ligand blank, as the GST proteins has significant background binding to a blank neutravidin plate. The plates were then blocked with 5% BSA overnight. Protein was laid down at a concentration of 100 nM for samples wells and the blank, scrambled peptide wells. GST protein alone (Abcam) was also incubated with the triligand and scrambled peptide as a control. The proteins were incubated for one hour, then washed three times with 1×TBST. The protein was then detected with 1:10,000 anti-GST mouse mAb (Fisher, #MA4-004) for one hour, washed three times with 1×TBST and developed with a 1:1 mixture of TMB substrate for ten minutes. The samples were plotted by subtracting the blanks and averaging the sample wells. The highest signal was considered 100% binding, and the other samples were normalized accordingly.

The target in experiment [3] is T2, E17K PH Domain binding to PIP3 (Homo sapiens, UniProt P31749, E17K).
T2 construct: 2 μg of either wildtype or mutant PH Domain-GFP protein (234 nM); made in house; host or cells: HEK-293-6E (used as cell lysate, not purified)
Kind of experiment: PIP3 agarose inhibition assay, E17K. The format is biochemical. As to conditions: in words; for inhibition of E17K PH Domain binding to PIP3-coated resin: ligand 2.38 μM (10x protein), protein 234 nM, western blot; for inhibition of E17K PH Domain binding to PIP3 resin, expanded assay: triligand 0.1-1000 eq relative to protein (234 nM). An excerpt:
(§1) The yleaf ligand, the biligand, and the triligand were all tested for their ability to block the E17K PHD binding with PIP3. For this test, PIP3-coated resin (Echelon Biosciences) was used to mimic the PHD interaction with the cell membrane, and could be used to bind the protein as in an immunoprecipitation assay^22. The presence of an effective blocking compound would reduce the ability of the resin to capture the protein, and would thus appear as a diminished signal in the corresponding western blot assay. A control lane containing no capture agent was used to show baseline binding of the protein to the PIP3 resin. […] In an expanded study, we compared the amount of E17K and WT PH domain binding relative to the amount of added triligand (FIG. 5e).
PIP3 Agarose beads (Echelon) were used to detect for the inhibition of PH Domain binding to its substrate, PIP3, upon incubation with the anchor candidate peptide ligands. To test the inhibition of each of the ligands, anchor biligand and triligand, 20 μL of resin slurry was added to each of four tubes and washed three times with 1×TBS. Protein, 2 μg (234 nM) of E17K mutant, was preincubated for one hour at room temperature with either DMSO (no protein blank), anchor, biligand or triligand at 2.38 μM (10× in relation to protein) in 200 μL of 1×TBS. For the control, mutant PH Domain was incubated with 1×TBS and 1 μL […] to mimic the ligand conditions. These protein samples were then added to PIP3 agarose in a Spin-X tube and incubated at room temperature for two hours. The resin was washed three times with 1×TBS with 0.25% IGEPAL CA-630, spun out to dry completely, then denatured with 50 μL 3×SDS gel loading buffer for 10 min at 95° C. The gel loading buffer was spun out of the resin and detected via western blot as per the Streptavidin-Agarose Pulldowns. Inhibition was indicated by a decrease in the amount of PH Domain that was pulled down by the resin.
(§2) Expanded inhibition blots with either WT of E17K mutant protein were performed in a similar fashion. Twelve tubes of 20 μL of PIP3 agarose were washed three times with 1×TBS. 2 μg of either wildtype or mutant PH Domain-GFP protein (234 nM) in 200 uL 1×TBS were preincubated for 30 minutes with differing concentrations of triligand: 0.1 eq (23.4 nM), 1 eq (234 nM), 10 eq (2.34 μM), 100 eq (23.4 μM), and 1000 eq (234 μM). The protein and triligand solutions were then incubated with the PIP3 resin for 2 hours at room temperature. The resins were washed, eluted, and blotted as per all PH Domain western blots.

In experiment [4] the target is T3, WT PH Domain binding to PIP3 (Homo sapiens, UniProt P31749).
T3 construct: 2 μg of either wildtype or mutant PH Domain-GFP protein (234 nM); made in house; host or cells: HEK-293-6E (used as cell lysate, not purified)
As to the kind of experiment: PIP3 agarose inhibition assay, WT. The format is biochemical. Particulars: triligand 0.1-1000 eq relative to protein (234 nM), in words.
Description: as §1, §2

Where a SMILES comes first, the peptide text is derived from it. Bridges are numbered along the chain shown (N, C = ends). Roman numbers before positions name the chains, in order. Primed or numbered codes have the meaning given here. Triazole bridges read from a SMILES are 1,4-linked. Where no end group is shown, it is not given here. [ ]: non-standard residue; d: D form. The star is where a group is joined. Biotin = O=C1N[C@H]2[C@H](CS[C@H]2CCCCC(=O)*)N1; Lys(N3) = [N-]=[N+]=NCCCC[C@H](N)C(=O)O; PEG6 = NCCOCCOCCOCCOCCOCCOCCC(=O)O; dPra = C#CC[C@@H](N)C(=O)O; PEG5′ = PEG5 linker

T2 sequence (P31749 5-108 E17K limits assumed): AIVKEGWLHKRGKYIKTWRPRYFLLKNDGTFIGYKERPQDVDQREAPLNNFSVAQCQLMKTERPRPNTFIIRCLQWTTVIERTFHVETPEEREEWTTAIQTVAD
T1 sequence (P31749 1-124 E17K): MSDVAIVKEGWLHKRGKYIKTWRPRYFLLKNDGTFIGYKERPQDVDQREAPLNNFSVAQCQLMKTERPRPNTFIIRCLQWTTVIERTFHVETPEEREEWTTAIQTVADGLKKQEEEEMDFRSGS
T3 sequence (P31749 5-108 limits assumed): as the sequence (P31749 5-108 E17K limits assumed) above, with K13E counted along it

Consider `CC[C@@H](C)[C@@H](NC(=O)CCOCCOCCOCCOCCOCCOCCNC(=O)CCCC[C@@H]1SC[C@@H]2NC(=O)N[C@@H]21)C(=O)N[C@@H](C(=O)N[C@H](CC(=O)O)C(=O)N[C@H](C)C(=O)N[C@H](CCC(=O)O)C(=O)N[C@H](Cc1cn(CCCC[C@H](NC(C)=O)C(=O)N[C@H](Cc2ccc(O)cc2)C(=O)N[C@H](CC(C)C)C(=O)N[C@H](CCC(=O)O)C(=O)N[C@H](C)C(=O)N[C@H](Cc2ccccc2)C(=O)N[C@H](Cc2cn(CCCC[C@H](NC(C)=O)C(=O)N[C@H](Cc3ccc(O)cc3)C(=O)N[C@H](CCCCN)C(=O)N[C@H](CO)C(=O)N[C@H](Cc3ccc(O)cc3)C(N)=O)nn2)C(=O)O)nn1)C(=O)O)C(C)C` [triligand] (I: Ac-[Lys(N3)][dY][dL][dE][dA][dF][dPra]-OH / II: {Biotin-PEG6}-[dI][dV][dD][dA][dE][dPra]-OH / III: Ac-[Lys(N3)][dY][dK][dS][dY]-NH2; triazole I:1-II:6, I:7-III:1; N-terminus assumed), for which, in experiment [1] (in words), the “change in binding affinity for the E17K protein versus the preceding ligand (ELISA)” value is reported as “does not show an affinity increase for the E17K protein” and the “selectivity for E17K Akt1 relative to WT Akt1 (ELISA)” value was “largely recovered”. The “selectivity for E17K Akt1 relative to WT Akt1 (ELISA)” value in experiment [1] (in words, listed as ivdae) is recorded as “maintains the selectivity over the WT protein”. Moreover, in experiment [1] (ligand immobilized at 1 μM on streptavidin plate, Hill fit with common saturation and slope, read-out: EC50 for the E17K Akt1 from ELISA binding curves), the EC50 was 0.045 µM. Moreover, the “preference for E17K Akt1 relative to E17K Akt2” value in experiment [2] is recorded as “slight preference for E17K Akt1 relative to E17K Akt2”. In experiment [3], the “inhibition of E17K PH Domain binding to PIP3-coated resin” value is given as “exhibited the ability to block the PHD-PIP3 interaction, with the triligand being the most effective” and the “inhibition of E17K PH Domain binding to PIP3 resin, expanded assay” value is recorded as “significant selective inhibition of the E17K mutant relative to the WT”.

On to “triligand 8: form of the ivdae-yleaf-yksy triligand used in PIP3 inhibition assays (peptide 1 {Biotin-PEG5′}-[dI][dV][dD][dA][dE]; peptide 2 [dY][dL][dE][dA][dF]; peptide 3 [dY][dK][dS][dY]; not fully specified (N-terminus, C-terminus); also: triazole to a chain's N/C-terminus via Pra/Lys(N3), triazole to a chain's N/C-terminus via Pra/Lys(N3))”, for which, in experiment [3], the “inhibition of E17K PH Domain binding to PIP3-coated resin” value was “decreased binding of the protein” and the “inhibition of E17K PH Domain binding to PIP3 resin, expanded assay” value is given as “significant inhibition”. Also, the “inhibition of WT PH Domain binding to PIP3 resin, expanded assay” value in experiment [4] is “little inhibition of this protein”.
